Laboratory results as given in patent US8076488B2, “Bicyclic urea derivatives useful in the treatment of cancer and other disorders” (Bayer Healthcare LLC, priority 2003, dated 2011).
Structures can show the parent of a compound that is named as a salt.

The compounds below were run against T1, c-Raf kinase (Lck-activated c-Raf, Raf-1) (Homo sapiens, UniProt P04049) (assay: c-Raf (Raf-1) biochemical assay (radioactive filtermat assay, MEK-1 substrate)). Details: at 1 micromolar compound; 5 μM ATP, 32° C., 1 hour.
T1 construct: GST-c-Raf (from amino acid 302 to amino acid 648); made in house; host or cells: Sf9 insect cells (baculovirus; co-infection with full-length Lck)
Description: Biological Tests c-Raf (Raf-1) Biochemical Assay Purification of Proteins Used in the Assay
The c-Raf biochemical assay was performed with a c-Raf enzyme that was activated (phosphorylated) by Lck kinase. Lck-activated c-Raf (Lck/c-Raf) was produced in Sf9 insect cells by co-infecting cells with baculoviruses expressing, under the control of the polyhedrin promoter, GST-c-Raf (from amino acid 302 to amino acid 648) and Lck (full-length). Both baculoviruses were used at the multiplicity of infection of 2.5 and the cells were harvested 48 hours post infection.
MEK-1 protein was produced in Sf9 insect cells by infecting cells with the baculovirus expressing GST-MEK-1 (full-length) fusion protein at the multiplicity of infection of 5 and harvesting the cells 48 hours post infection. Similar purification procedure was used for GST-c-Raf 302-648 and GST-MEK-1.
Transfected cells were suspended at 100 mg of wet cell biomass per mL in a buffer containing 10 mM sodium phosphate, 140 mM sodium chloride pH 7.3, 0.5% Triton X-100 and the protease inhibitor cocktail. The cells were disrupted with Polytron homogenizer and centrifuged 30,000 g for 30 minutes. The 30,000 g supernatant was applied onto GSH-Sepharose. The resin was washed with a buffer containing 50 mM Tris, pH 8.0, 150 mM NaCl and 0.01% Triton X-100. The GST-tagged proteins were eluted with a solution containing 100 mM Glutathione, 50 mM Tris, pH 8.0, 150 mM NaCl and 0.01% Triton X-100. The purified proteins were dialyzed into a buffer containing 20 mM Tris, pH 7.5, 150 mM NaCl and 20% Glycerol.
Biochemical Assay Protocol and Results
The compounds were serially diluted in DMSO using three-fold dilutions to stock concentrations ranging typically from 50 μM to 20 nM (final concentrations in the assay range from 1 μM to 0.4 nM). The c-Raf biochemical assay was performed as a radioactive filtermat assay in 96-well Costar polypropylene plates (Costar 3365). The plates were loaded with 75 μL solution containing 50 mM HEPES pH 7.5, 70 mM NaCl, 80 ng of Lck/c-Raf and 1 μg MEK-1. Subsequently, 2 μL of the serially diluted individual compounds were added to the reaction, prior to the addition of ATP. The reaction was initiated with 25 μL ATP solution containing 5 μM ATP and 0.3 μCi [33P]-ATP. The plates were sealed and incubated at 32° C. for 1 hour. The reaction was quenched with the addition of 50 μl of 4% Phosphoric Acid and harvested onto P30 filtermats (PerkinElmer) using a Wallac Tomtec Harvester. Filtermats were washed with 1% Phosphoric Acid first and deinonized H2O second. The filters were dried in a microwave, soaked in scintillation fluid and read in a Wallac 1205 Betaplate Counter (Wallac Inc., Atlanta, Ga., U.S.A.). The results were expressed as percent inhibition. % Inhibition=[[…]]×100 where • Tib=(counts per minute with inhibitor)−(background) • Ti=(counts per minute without inhibitor)−(background)

T1 sequence (P04049 302-648): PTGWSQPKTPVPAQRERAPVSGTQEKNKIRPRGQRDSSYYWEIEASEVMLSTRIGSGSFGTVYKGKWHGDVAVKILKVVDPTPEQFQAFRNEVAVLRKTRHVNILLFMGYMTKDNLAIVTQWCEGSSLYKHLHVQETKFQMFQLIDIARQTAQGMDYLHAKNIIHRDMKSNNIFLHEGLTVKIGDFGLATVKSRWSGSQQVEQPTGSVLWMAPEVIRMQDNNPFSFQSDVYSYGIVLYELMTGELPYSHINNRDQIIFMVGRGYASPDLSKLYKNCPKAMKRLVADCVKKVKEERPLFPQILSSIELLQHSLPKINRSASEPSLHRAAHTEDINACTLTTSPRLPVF

| inhibition at 1 µM [%] | Compound |
| --- | --- |
| > 40 | O=C(Nc1ccc(Oc2ccnc(C(=O)Nc3ccccn3)c2)cc1)Nc1ccc2c(c1)C(F)(F)OC(F)(F)O2 [Example 155] |
| > 40 | CNC(=O)c1cc(Oc2cccc(NC(=O)Nc3ccc4c(c3)C(F)(F)OC(F)(F)O4)c2)ccn1 [Example 117] |
| > 40 | CNC(=O)c1cc(Oc2ccc(NC(=O)Nc3ccc4c(c3)OCO4)cc2)ccn1 [Example 135] |
| > 40 | Cc1nc2cc(NC(=O)Nc3ccc(Oc4ccnc(C(N)=O)c4)cc3)ccc2s1 [Example 91] |
| > 40 | COC(=O)c1cc(Oc2cccc(NC(=O)Nc3ccc4c(c3)C(F)(F)OC(F)(F)O4)c2)ccn1 [Example 105, Methyl 4-[3-({[(2,2,4,4-tetrafluoro-4H-1,3-benzodioxin-6-yl)amino]-carbonyl}amino)phenoxy]pyridine-2-carboxylate] |
| > 40 | O=C(Nc1ccc(Oc2ccnc(C(=O)NCCCn3ccnc3)c2)cc1)Nc1ccc2c(c1)OCCO2 [Example 158] |
| > 40 | CNC(=O)c1cc(Oc2ccc(NC(=O)Nc3ccc4nc(C)oc4c3)cc2)ccn1 [Example 6] |
| > 40 | CNC(=O)c1cc(Oc2ccc(NC(=O)Nc3ccc4cnn(C)c4c3)cc2)ccn1 [Example 24] |
| > 40 | Cn1ncc2cc(NC(=O)Nc3ccc(Oc4ccnc(C(=O)NC5CCC5)c4)cc3)ccc21 [Example 163] |
| > 40 | COC(=O)c1cc(Oc2ccc(NC(=O)Nc3ccc4c(cnn4C)c3)cc2)ccn1 [Example 98] |
| > 40 | CNC(=O)c1cc(Oc2ccc(NC(=O)Nc3nc4ccc(F)cc4s3)cc2)ccn1 [Example 13] |
| > 40 | CNC(=O)c1cc(Oc2ccc(NC(=O)Nc3ccc4nccnc4c3)cc2)ccn1 [Example 17] |
| > 40 | CNC(=O)c1cc(Oc2ccc(NC(=O)Nc3ccc4c(c3)OC(F)(F)C(F)(F)O4)c(C(F)(F)F)c2)ccn1 [Example 64] |

The next lines start with the compound.

| Compound | inhibition at 1 µM [%] |
| --- | --- |
| Cn1ncc2cc(NC(=O)Nc3cccc(Oc4ccnc(C(=O)NCCCn5ccnc5)c4)c3)ccc21 [Example 166] | > 40 |
| COC(=O)c1cc(Oc2cccc(NC(=O)Nc3ccc4c(cnn4C)c3)c2)ccn1 [Example 2, Methyl 4-[3-({[(1-methyl-1H-indazol-5-yl)amino]carbonyl}amino)phenoxy]-pyridine-2-carboxylate] | > 40 |
| CNC(=O)c1cc(Oc2cccc(NC(=O)Nc3ccc4[nH]ncc4c3)c2)ccn1 [Example 108, 4-(3-{[(1H-indazol-5-ylamino)carbonyl]amino}phenoxy)-N-methylpyridine-2-carboxamide dihydrochloride] | > 40 |
| COCCNC(=O)c1cc(Oc2ccc(NC(=O)Nc3ccc4c(cnn4C)c3)c(F)c2)ccn1 [Example 99] | > 40 |
| NC(=O)c1cc(Oc2ccc(NC(=O)Nc3ccc4c(c3)CCC4)c(Cl)c2)ccn1 [Example 95] | > 40 |
| CNC(=O)c1cc(Oc2ccc(NC(=O)Nc3cccc4c3CCC4)cc2)ccn1 [Example 7] | > 40 |
| CNC(=O)c1cc(Oc2ccc(NC(=O)Nc3nc4ccc(OC)cc4s3)cc2)ccn1 [Example 14] | > 40 |
| CCN(CC)CCn1ncc2cc(NC(=O)Nc3ccc(Oc4ccnc(C(=O)NC)c4)cc3F)ccc21 [Example 45] | > 40 |
| CNC(=O)c1cc(COc2cccc(NC(=O)Nc3ccc4c(cnn4C)c3)c2)ccn1 [Example 89] | > 40 |
| Cn1ncc2cc(NC(=O)Nc3ccc(Oc4ccnc(C(=O)NCC5CC5)c4)cc3)ccc21 [Example 162] | > 40 |
| CNC(=O)c1cc(Oc2ccc(NC(=O)Nc3nc4ccc([N+](=O)[O-])cc4s3)cc2)ccn1 [Example 102] | > 40 |
| CNC(=O)c1cc(Oc2ccc(NC(=O)Nc3nc4ccc(Cl)cc4s3)cc2)ccn1 [Example 11] | > 40 |
| CNC(=O)c1cc(Oc2ccc(NC(=O)Nc3ccc4c(c3)N(C(C)=O)CC4)cc2)ccn1 [Example 10] | > 40 |
| Cn1ncc2cc(NC(=O)Nc3ccc(Oc4ccnc(C(=O)NCCN5CCCCC5)c4)cc3)ccc21 [Example 161] | > 40 |
